Source: US20230381343A1, “Treatment for Intraocular Pressure Related Disorders” (Mayo Foundation for Medical Education and Research, priority 2021, published 2023)

Tests used:
[1] = one eye, IOP 33 mmHg at 12 months after plaque
Description: Records were reviewed for patient demographics, clinical tumor features, treatment parameters, and outcomes, with attention to IOP and optic disc features.

C57BL/6J mice = test: Aqueous outflow parameters by constant flow infusion; assay type: in vivo, mouse; details: 6 weeks post intracameral injection, treatment day 5 for topical
Description: To determine the effects of ssAAV2-smCBA-STC-1-FLAG on parameters of aqueous outflow, 3-month old C57BL/6J mice were separately treated with the following: 1) intracameral ssAAV2-smCB A-STC-1-FLAG (n=5), 2) intracameral ssAAV2-smCBA-GFP (n=5), 3) topical recombinant human STC-1 (n=4; Biovender Research and Diagnostic Products, Czech Republic) (Roddy et al., Invest Ophthalmol Vis Sci. 58:2715-24(2017); Roddy et al., PLoS ONE. 15(2020)), 4) topical latanoprost free acid (LFA; n=5; Cayman Chemical, Ann Arbor, MI), or 5) untreated mice (n=4). Mice that received topical treatments were treated with once daily topical doses of STC-1 (5 μl of 0.5 μg/μl) or LFA (10^-4 M) for 5 days prior to aqueous outflow experiments. Mice that received intracameral injections were treated 6 weeks prior to aqueous outflow measurements. Aqueous outflow was assessed using the protocols previously established (Millar et al., Invest Ophthalmol Vis Sci. 52:685-94(2011); Roy Chowdhury et al., Invest Ophthalmol Vis Sci. 58:5731-42(2017)). Briefly, a 33-g needle was used to cannulate the anterior chamber of anesthetized mice. The needle was connected to a flow-through pressure transducer (World Precision Instruments, Sarasota, FL) that was also connected to an SP101i microdialysis infusion pump (World Precision Instruments) and an open-ended, variable-height, raised reservoir manometer. Episcleral venous pressure was obtained by visualizing the reflux of blood into Schlemm's canal by direct ophthalmoscopy as the reservoir was lowered. Outflow facility was determined by slowly increasing the flow rate with the infusion pump and recording the pressure. Uveoscleral outflow was calculated when the inflow is presumed to be zero immediately after animal sacrifice. Aqueous humor formation was then estimated by using the modified Goldmann equation, i.e. aqueous formation rate=[outflow facility X (IOP−episcleral venous pressure)]+uveoscleral outflow as previously described (Millar et al., Invest Ophthalmol Vis Sci. 52:685-94(2011)). To validate the calculated IOP values based on the Goldman equation, IOP was also assessed with a handheld rebound tonometer. All data were recorded and analyzed using LabScribe software (World Precision Instruments).

[2] = tested on: mouse model of experimental autoimmune uveitis; test: Experimental autoimmune uveitis (EAU), topical treatment; assay type: in vivo; details: daily topical
Protocol: Following induction of experimental autoimmune uveitis (EAU), mice were treated daily with topical latanoprost free acid (LFA; 100 μM) or STC-1 (0.5 μg/mL) in one eye and vehicle in the other eye. At day 18, OCT was performed and retinal thickness was measured in a masked manner. At day 21, eyes were enucleated and processed for hematoxylin and eosin (H&E) staining.
Experimental autoimmune uveitis (EAU) was induced in the C57B/6 mouse with a protocol described elsewhere (see, e.g., Avichezer et al., Invest. Ophthalmol. Vis. Sci., 41(1):127-31 (2004)). Briefly, human interphotoreceptor retinoid binding protein (IRBP) in complete Freund's adjuvant was injected subcutaneously and pertussis toxin was injected intraperitoneally as an additional immune stimulus.

wild-type C57BL/6J mice = test: Steroid-induced (dexamethasone) ocular hypertension model, topical treatment; assay type: in vivo, mouse
Description: All studies were approved by the Mayo Clinic (Rochester, MN) IACUC and adhered to ARVO guidelines. […] In the final phase of the experiment (experimental weeks 7-9, treatment weeks 4-6), dexamethasone-injected animals in Group 2 continued to receive topical STC-1 while treatment was halted in the vehicle-injected fellow eye for a medication wash-out period (FIG. 22). For statistical purposes, the final week of each condition was selected (i.e. weeks 3, 6, and 9) for analysis. To determine if a difference in IOP was present among groups at week 6 and 9, a Kruskal-Wallis test was performed. An unpaired t-test was used to directly compare the two groups. Values for all statistical tests were considered significant at P<0.05.
For both models histologic analysis was performed.

## dorzolamide hydrochloride-timolol maleate
[1]
  Response of IOP spike to topical therapy: responded

## O=C(O)CCC/C=C\C[C@@H]1[C@@H](CC[C@@H](O)CCc2ccccc2)[C@H](O)C[C@@H]1O [LFA, latanoprost free acid]
C57BL/6J mice
  Episcleral venous pressure: 10.0 ± 2.4 mmHg
  Outflow facility: 0.046 ± 0.02 μL/min/mmHg
  Uveoscleral outflow: 0.046 ± 0.02 µL/min
C57BL/6J mice; Goldmann equation
  Calculated IOP: 14.0 ± 1.9 mmHg
C57BL/6J mice; rebound tonometer
  Measured IOP: 13.2 ± 0.9 mmHg
[2]; day 18
  Retinal thickness by OCT vs vehicle control eye: no significant difference in retinal thickness
[2]; day 21
  Vitreous inflammatory cells (H&E): trend toward greater vitreous cell

## CC(=O)OCC(=O)[C@@]1(O)[C@H](C)C[C@H]2[C@@H]3CCC4=CC(=O)C=C[C@]4(C)[C@@]3(F)[C@@H](O)C[C@@]21C [dexamethasone, dexamethasone acetate]
wild-type C57BL/6J mice; PBS-treated dexamethasone-injected eyes, week 6, n=8
  IOP: 19.5±1.7 mmHg
wild-type C57BL/6J mice; PBS-treated dexamethasone-injected eyes, week 9, n=8
  IOP: 19.7±1.3 mmHg
wild-type C57BL/6J mice; after 3 weekly conjunctival fornix injections, n=18
  Increase in IOP vs vehicle-injected eyes: 18%
wild-type C57BL/6J mice; dexamethasone-injected eyes, week 3, n=18
  IOP: 19.7±1.8 mmHg
wild-type C57BL/6J mice; week 6, n=8
  IOP change vs PBS-treated vehicle-injected eyes: 25%
